System: RA patients
Assay: LDL determination, Study 2 (RA patients, monotherapy)
Format: in vivo, human
Description: Randomized, double-blind, placebo-controlled, multicenter, phase IIb dose finding study of Compound 1 (dosed as a [Compound 1:HCl:3H2O]) administered for 24 weeks as monotherapy to subjects with moderately to severely active rheumatoid arthritis who have an inadequate response to methotrexate alone
Double-blind, placebo-controlled, monotherapy study in subjects with moderately to severely active RA who have an inadequate response to methotrexate (MTX) (oral or parenteral).
280 subjects randomized to one of 3 doses of Compound 1 (dosed as a [Compound 1:HCl:3H2O]) or to placebo, given once daily (q.d.).
Twelve weeks of treatment with Compound 1 (dosed as a [Compound 1:HCl:3H2O]) at 50 mg, 100 mg, or 200 mg q.d.; or placebo. At Week 12, all subjects on placebo and the subjects on the 50 mg dose who have not achieved 20% improvement in swollen joint count (SJC66) and tender joint count (TJC68) will be assigned to 100 mg q.d. in a blinded fashion and will continue treatment until Week 24. Subjects in the other groups will maintain their randomized treatment until Week 24.
The determination of [LDL]-cholesterol is made using an automated method taking advantage of the selective micellary solubilization of [LDL]-cholesterol by a nonionic detergent and the interaction of a sugar compound and lipoproteins (VLDL and chylomicrons).
When a detergent is included in the enzymatic method for cholesterol determination (cholesterol esterase, cholesterol oxidase coupling reaction), the relative reactivities of cholesterol in the lipoprotein fractions increase in this order: [HDL]<chylomicrons <VLDL <[LDL]. In the presence of Mg^2+, a sugar compound markedly reduces the enzymatic reaction of the cholesterol measurement in VLDL and chylomicrons. The combination of a sugar compound with detergent enables the selective determination of [LDL]-cholesterol in serum. (Friedewald et al., 1972; Rifai et al., 1992)
Homogeneous enzymatic colorimetric assay.
In the presence of peroxidase, the hydrogen peroxide generated reacts with 4-aminoantipyrine and Sodium N-(2-hydroxy-3-sulfopropyl)-3,5-dimethoxyaniline (HSDA) to form a purple-blue dye.
The color intensity of this dye is directly proportional to the cholesterol concentration and is measured photometrically.
Human serum and plasma samples [LDL] determination was done on a Roche/Hitachi Cobas c 701/702 system which automatically calculate the analyte concentration of each sample. Samples containing precipitates are centrifuged before performing the assay.

[1] = Study 2 12 weeks results, 50 mg q.d., week 12
[2] = Study 2 12 weeks results, 100 mg q.d., week 1
[3] = Study 2 12 weeks results, 100 mg q.d., week 2
[4] = Study 2 12 weeks results, 100 mg q.d., week 4
[5] = Study 2 12 weeks results, 100 mg q.d., week 8
[6] = Study 2 12 weeks results, 100 mg q.d., week 12
[7] = Study 2 12 weeks results, 200 mg q.d., week 1
[8] = Study 2 12 weeks results, 200 mg q.d., week 2
[9] = Study 2 12 weeks results, 200 mg q.d., week 4
[10] = Study 2 12 weeks results, 200 mg q.d., week 8
[11] = Study 2 12 weeks results, 200 mg q.d., week 12
[12] = Study 2 24 weeks results, 50 mg q.d. non responders switching to 100 mg q.d. at week 12, week 1
[13] = Study 2 24 weeks results, 50 mg q.d. non responders switching to 100 mg q.d. at week 12, week 2
[14] = Study 2 24 weeks results, 50 mg q.d. non responders switching to 100 mg q.d. at week 12, week 4
[15] = Study 2 24 weeks results, 50 mg q.d. non responders switching to 100 mg q.d. at week 12, week 8
[16] = Study 2 24 weeks results, 50 mg q.d. non responders switching to 100 mg q.d. at week 12, week 12
[17] = Study 2 24 weeks results, 50 mg q.d. non responders switching to 100 mg q.d. at week 12, week 16
[18] = Study 2 24 weeks results, 50 mg q.d. non responders switching to 100 mg q.d. at week 12, week 20
[19] = Study 2 24 weeks results, 50 mg q.d. non responders switching to 100 mg q.d. at week 12, week 24
[20] = Study 2 24 weeks results, 50 mg q.d. responders, week 1
[21] = Study 2 24 weeks results, 50 mg q.d. responders, week 2
[22] = Study 2 24 weeks results, 50 mg q.d. responders, week 4
[23] = Study 2 24 weeks results, 50 mg q.d. responders, week 8
[24] = Study 2 24 weeks results, 50 mg q.d. responders, week 12
[25] = Study 2 24 weeks results, 50 mg q.d. responders, week 16
[26] = Study 2 24 weeks results, 50 mg q.d. responders, week 20
[27] = Study 2 24 weeks results, 50 mg q.d. responders, week 24
[28] = Study 2 24 weeks results, 100 mg q.d., week 1
[29] = Study 2 24 weeks results, 100 mg q.d., week 2
[30] = Study 2 24 weeks results, 100 mg q.d., week 4
[31] = Study 2 24 weeks results, 100 mg q.d., week 8
[32] = Study 2 24 weeks results, 100 mg q.d., week 12
[33] = Study 2 24 weeks results, 100 mg q.d., week 16
[34] = Study 2 24 weeks results, 100 mg q.d., week 20
[35] = Study 2 24 weeks results, 100 mg q.d., week 24
[36] = Study 2 24 weeks results, 200 mg q.d., week 1
[37] = Study 2 24 weeks results, 200 mg q.d., week 2
[38] = Study 2 24 weeks results, 200 mg q.d., week 4
[39] = Study 2 24 weeks results, 200 mg q.d., week 8
[40] = Study 2 24 weeks results, 200 mg q.d., week 12
[41] = Study 2 24 weeks results, 200 mg q.d., week 16
[42] = Study 2 24 weeks results, 200 mg q.d., week 20
[43] = Study 2 24 weeks results, 200 mg q.d., week 24
[44] = Study 2 24 weeks results, placebo switching to 100 mg q.d. at week 12, week 16
[45] = Study 2 24 weeks results, placebo switching to 100 mg q.d. at week 12, week 20
[46] = Study 2 24 weeks results, placebo switching to 100 mg q.d. at week 12, week 24
[47] = placebo switching to 100 mg q.d. at week 12, week 20
[48] = placebo switching to 100 mg q.d. at week 12, week 24

Structure (SMILES): O=C(Nc1nc2cccc(-c3ccc(CN4CCS(=O)(=O)CC4)cc3)n2n1)C1CC1 [Compound 1, cyclopropanecarboxylic acid {5-[4-(1,1-dioxo-thiomorpholin-4-ylmethyl)-phenyl]-[1,2,4]triazolo[1,5-a]pyridin-2yl}-amide]
- [LDL] Mean CFB [1]: 0.090 mmol/L
- [LDL] Median CFB [1]: 0.040 mmol/L
- [LDL] Mean CFB [2]: 0.116 mmol/L
- [LDL] Median CFB [2]: 0.070 mmol/L
- [LDL] Mean CFB [3]: 0.105 mmol/L
- [LDL] Median CFB [3]: -0.050 mmol/L
- [LDL] Mean CFB [4]: 0.195 mmol/L
- [LDL] Median CFB [4]: 0.140 mmol/L
- [LDL] Mean CFB [5]: 0.162 mmol/L
- [LDL] Median CFB [5]: 0.140 mmol/L
- [LDL] Mean CFB [6]: 0.278 mmol/L
- [LDL] Median CFB [6]: 0.180 mmol/L
- [LDL] Mean CFB [7]: 0.209 mmol/L
- [LDL] Median CFB [7]: 0.180 mmol/L
- [LDL] Mean CFB [8]: 0.192 mmol/L
- [LDL] Median CFB [8]: 0.130 mmol/L
- [LDL] Mean CFB [9]: 0.216 mmol/L
- [LDL] Median CFB [9]: 0.290 mmol/L
- [LDL] Mean CFB [10]: 0.212 mmol/L
- [LDL] Median CFB [10]: 0.230 mmol/L
- [LDL] Mean CFB [11]: 0.347 mmol/L
- [LDL] Median CFB [11]: 0.315 mmol/L
- [LDL] Mean CFB [12]: 0.08 mmol/L
- [LDL] Median CFB [12]: 0.07 mmol/L
- [LDL] Mean CFB [13]: 0.00 mmol/L
- [LDL] Median CFB [13]: -0.02 mmol/L
- [LDL] Mean CFB [14]: 0.17 mmol/L
- [LDL] Median CFB [14]: 0.05 mmol/L
- [LDL] Mean CFB [15]: 0.10 mmol/L
- [LDL] Median CFB [15]: 0.10 mmol/L
- [LDL] Mean CFB [16]: 0.11 mmol/L
- [LDL] Median CFB [16]: 0.09 mmol/L
- [LDL] Mean CFB [17]: 0.22 mmol/L
- [LDL] Median CFB [17]: 0.20 mmol/L
- [LDL] Mean CFB [18]: 0.03 mmol/L
- [LDL] Median CFB [18]: -0.04 mmol/L
- [LDL] Mean CFB [19]: 0.14 mmol/L
- [LDL] Median CFB [19]: 0.15 mmol/L
- [LDL] Mean CFB [20]: -0.01 mmol/L
- [LDL] Median CFB [20]: -0.01 mmol/L
- [LDL] Mean CFB [21]: -0.07 mmol/L
- [LDL] Median CFB [21]: -0.06 mmol/L
- [LDL] Mean CFB [22]: 0.01 mmol/L
- [LDL] Median CFB [22]: -0.05 mmol/L
- [LDL] Mean CFB [23]: 0.16 mmol/L
- [LDL] Median CFB [23]: 0.14 mmol/L
- [LDL] Mean CFB [24]: 0.09 mmol/L
- [LDL] Median CFB [24]: 0.03 mmol/L
- [LDL] Mean CFB [25]: 0.18 mmol/L
- [LDL] Median CFB [25]: 0.16 mmol/L
- [LDL] Mean CFB [26]: 0.00 mmol/L
- [LDL] Median CFB [26]: 0.12 mmol/L
- [LDL] Mean CFB [27]: 0.00 mmol/L
- [LDL] Median CFB [27]: -0.01 mmol/L
- [LDL] Mean CFB [28]: 0.12 mmol/L
- [LDL] Median CFB [28]: 0.07 mmol/L
- [LDL] Mean CFB [29]: 0.10 mmol/L
- [LDL] Median CFB [29]: -0.05 mmol/L
- [LDL] Mean CFB [30]: 0.19 mmol/L
- [LDL] Median CFB [30]: 0.14 mmol/L
- [LDL] Mean CFB [31]: 0.16 mmol/L
- [LDL] Median CFB [31]: 0.14 mmol/L
- [LDL] Mean CFB [32]: 0.28 mmol/L
- [LDL] Median CFB [32]: 0.18 mmol/L
- [LDL] Mean CFB [33]: 0.28 mmol/L
- [LDL] Median CFB [33]: 0.20 mmol/L
- [LDL] Mean CFB [34]: 0.25 mmol/L
- [LDL] Median CFB [34]: 0.23 mmol/L
- [LDL] Mean CFB [35]: 0.31 mmol/L
- [LDL] Median CFB [35]: 0.31 mmol/L
- [LDL] Mean CFB [36]: 0.21 mmol/L
- [LDL] Median CFB [36]: 0.18 mmol/L
- [LDL] Mean CFB [37]: 0.19 mmol/L
- [LDL] Median CFB [37]: 0.13 mmol/L
- [LDL] Mean CFB [38]: 0.22 mmol/L
- [LDL] Median CFB [38]: 0.29 mmol/L
- [LDL] Mean CFB [39]: 0.21 mmol/L
- [LDL] Median CFB [39]: 0.23 mmol/L
- [LDL] Mean CFB [40]: 0.35 mmol/L
- [LDL] Median CFB [40]: 0.32 mmol/L
- [LDL] Mean CFB [41]: 0.30 mmol/L
- [LDL] Median CFB [41]: 0.23 mmol/L
- [LDL] Mean CFB [42]: 0.29 mmol/L
- [LDL] Median CFB [42]: 0.25 mmol/L
- [LDL] Mean CFB [43]: 0.38 mmol/L
- [LDL] Median CFB [43]: 0.34 mmol/L
- [LDL] Mean CFB [44]: 0.07 mmol/L
- [LDL] Median CFB [44]: -0.05 mmol/L
- [LDL] Mean CFB [45]: 0.16 mmol/L
- [LDL] Median CFB [45]: 0.03 mmol/L
- [LDL] Mean CFB [46]: 0.10 mmol/L
- [LDL] Median CFB [46]: 0.12 mmol/L
- [LDL] Mean percentage CFB - 24 weeks results (placebo switching to 100 mg q.d. at week 12, week 16): 2.82%
- [LDL] Mean percentage CFB - 24 weeks results [47]: 5.77%
- [LDL] Median percentage CFB - 24 weeks results [47]: 1.00%
- [LDL] Mean percentage CFB - 24 weeks results [48]: 4.50%
- [LDL] Median percentage CFB - 24 weeks results [48]: 4.13%
